According to ChEMBL document CHEMBL1136039, “Synthesis and SAR of novel imidazoquinoxaline-based Lck inhibitors: improvement of cell potency” (Bioorg Med Chem Lett, 2002):

Test system: PBL
Assay: cells
Conditions: Homo sapiens, Blood
Description: 50% inhibition of T-cell proliferation induced by anti-CD3/anti-CD28 co-stimulation in human peripheral blood leukocytes (PBLs).

IC50 [nM] | SMILES
470 | COc1cc2c(cc1OCCN1CCOCC1)nc(Nc1c(C)cccc1Cl)c1cncn12
2200 | CCNc1ccc2nc(Nc3c(C)cccc3Cl)c3cncn3c2c1
1300 | Cc1cccc(Cl)c1Nc1nc2ccc(NCCN3CCOCC3)cc2n2cncc12
270 | CCN1CCN(c2ccc3nc(Nc4c(C)cccc4Cl)c4cncn4c3c2)CC1
240 | Cc1cccc(Cl)c1Nc1nc2ccc(N3CCN(C)CC3)cc2n2cncc12
480 | Cc1cccc(Cl)c1Nc1nc2cc(NCCCN(C)C)ccc2n2cncc12
530 | Cc1cccc(Cl)c1Nc1nc2ccc(N3CCN(C=O)CC3)cc2n2cncc12
380 | Cc1cccc(Cl)c1Nc1nc2ccc(N3CCNCC3)cc2n2cncc12
880 | Cc1cccc(Cl)c1Nc1nc2ccc(NCCN(C)C)cc2n2cncc12
1400 | CC(=O)Nc1ccc2nc(Nc3c(C)cccc3Cl)c3cncn3c2c1
540 | Cc1cccc(Cl)c1Nc1nc2ccc(N3CCCN(C)CC3)cc2n2cncc12
520 | Cc1cccc(Cl)c1Nc1nc2cc(NCCN(C)C)ccc2n2cncc12
1600 | Cc1cccc(Cl)c1Nc1nc2ccc(N)cc2n2cncc12
780 | Cc1cccc(Cl)c1Nc1nc2ccc(N3CCOCC3)cc2n2cncc12
280 | COc1cc2c(cc1NCCN1CCOCC1)nc(Nc1c(C)cccc1Cl)c1cncn12
760 | Cc1cccc(Cl)c1Nc1nc2ccc(NCCCN3CCOCC3)cc2n2cncc12
1000 | Cc1cccc(Cl)c1Nc1nc2cc(N3CCOCC3)ccc2n2cncc12
1400 | COc1ccc2nc(Nc3c(C)cccc3Cl)c3cncn3c2c1

The remaining lines, values behind:

SMILES | IC50 [nM]
COc1cc2c(cc1NCCN(C)C)nc(Nc1c(C)cccc1Cl)c1cnc(C)n12 | 130
COc1cccc2nc(Nc3c(C)cccc3Cl)c3cncn3c12 | 2300
Cc1cccc(Cl)c1Nc1nc2cc(N3CCNCC3)ccc2n2cncc12 | 1000
Cc1cccc(Cl)c1Nc1nc2cc(N3CCN(C)CC3)ccc2n2cncc12 | 720
COc1cc2c(cc1NCCN(C)C)nc(Nc1c(C)cccc1Cl)c1cncn12 | 190
CCN(CC)c1ccc2nc(Nc3c(C)cccc3Cl)c3cncn3c2c1 | 2600
Cc1cccc(Cl)c1Nc1nc2ccc(N3CC(C)NC(C)C3)cc2n2cncc12 (configuration not stated) | 340
Cc1cccc(Cl)c1Nc1nc2cc(O)c(O)cc2n2cncc12 | > 9000
Brc1ccccc1Nc1nc2ccccc2n2cncc12 | 17000
COc1ccc2c(c1)nc(Nc1c(C)cccc1Cl)c1cncn12 | 2600
Cc1cccc(Cl)c1Nc1nc2cc3c(cc2n2cncc12)OCO3 | 2000
COc1cc2c(cc1NCCN(C)C)nc(Nc1c(F)cccc1Cl)c1cncn12 | 240
Cc1cccc(Cl)c1Nc1nc2cc(N3CC(C)NC(C)C3)ccc2n2cncc12 (configuration not stated) | 570
COc1cc2nc(Nc3c(C)cccc3Cl)c3cncn3c2cc1N1CC(C)NC(C)C1 (configuration not stated) | 760
Cc1cccc(Cl)c1Nc1nc2ccc(N(C)C)cc2n2cncc12 | 2000
Cc1cccc(Cl)c1Nc1nc2cc3c(cc2n2cncc12)OCCO3 | 2200
CCN(CC)c1ccc2c(c1)nc(Nc1c(C)cccc1Cl)c1cncn12 | 1700
COc1cc2nc(Nc3c(C)cccc3Cl)c3cncn3c2cc1OC | 670
COc1cc2nc(Nc3c(C)cccc3C)c3cncn3c2cc1OC | 1100
